Laboratory results from US8790898B2 (priority 2008, dated 2014).
“And” between values parts separate entries of the source, which are not always exact repeats. Identical values can stand only once. “Also recorded” adds a separate entry of the source. Like-named read-outs stand apart in the source and are kept apart here.

Legend:
[1] = test system: HIV-1 BZ 167; assay type: cell-based
[2] = test system: CBD1 peptide and CBD1- and CBM-based peptides; set-up: species or system BALB/c mice; conditions: mouse, in vivo; for ELISA C17K / ELISA K23M / ELISA K24W / ELISA K27M / ELISA K27W / ELISA K27W(G) / ELISA K30W(G) / ELISA against the Immunogen (OD) / ELISA p6362 / ELISA titer against C17K / IgG2/IgG1 ratio: sc; on ELISA C17K: test concentration or dose not given here; on ELISA K24W: test concentration or dose not given here; on ELISA K27W(G): test concentration or dose not given here; on ELISA K27W: test concentration or dose not given here; on ELISA K30W(G): test concentration or dose not given here; on ELISA against the Immunogen (OD): test concentration or dose not given here; on ELISA p6362: test concentration or dose not given here
[3] = test system: HIV-1 BZ 167; assay type: cell-based; conditions: for Inhibition of HIV-infection: 50-fold dilution of guinea pig immune sera (bleeds S5), HIV-1 BZ 167, p24 at 5 days post infection
[4] = biological target: CBD1, C13K, CBD1/A and C10M peptides and the CBD1-KLH Construct (Human immunodeficiency virus type 1 group M subtype B, UniProt P04578); conditions: guinea pig, in vivo
[5] = biological target: CBD1, C13K, CBD1/A and C10M peptides and the CBD1-KLH Construct (Human immunodeficiency virus type 1 group M subtype B, UniProt P04578, E630Q/H625N/T626M); conditions: guinea pig, in vivo
[6] = test system: CBD1, C13K, CBD1/A and C10M peptides and the CBD1-KLH Construct; conditions: guinea pig, in vivo
[7] = test system: IgG antibodies in human HIV-1 positive sera; assay type: binding; conditions: sera at 1000-fold dilution

Row | Substance | % Inhibition of HIV-1 infection at 200-fold dilution [1] | Neutralizing activity ID50 Fold-Dilution [1] | ELISA C17K [2] | ELISA K23M [2] | ELISA K24W [2] | ELISA K27M [2] | ELISA K27W [2] | ELISA K27W(G) [2] | ELISA K30W(G) [2] | ELISA against the Immunogen (OD) [2] [OD] | ELISA p6362 [2] | % inhibition of HIV-1 at 200-fold dilution [1] | Neutralizing activity ID50 [1] | ELISA titer against C17K [2] | other results
1 | KRWIILGLNKIVRMYKKIWDNMTWMEW [K27W-2] | <10% | 100-fold | <0.20 | <0.02 | <0.02 | <0.20 | 0.22 ± 0.08 | 2.01 ± 0.73 | <0.20 | 2.01 | <0.20 | – | – | – | –
2 | KRWIILGLNKIVRMYKKIWNNMTW [K24W] | 88% | 450-fold | <0.20 | 0.45 ± 0.40 | 1.41 ± 0.55 | 0.87 ± 0.15 | 0.21 ± 0.15 | 1.88 ± 0.66 | <0.20 | 1.55 | <0.20 | – | – | – | –
3 | KRWIILGLNKIVRMYKKCKSLEQIWNNMTWMQWDK | – | – | – | – | – | – | – | – | – | – | – | 51% | 200-fold | 1.72 ± 0.46 | –
4 | C-I-W-N-N-M-T-W-M-Q-W-D-K (CIWNNMTWMQWDK) [C13K] | – | – | – | – | – | – | – | – | – | – | – | None | None | 0.03 ± 0.02 | Inhibition of HIV-infection [3]: No Effect; ELISA C10M (titer) [4]: <200; ELISA CBD1 (titer) [5]: <200; ELISA C13K (titer) [6]: 400 and 200; ELISA CBD1/A (titer) [6]: <200; ELISA KLH (titer against the CBD1-KLH construct) [6]: <200
5 | AQYIKANSKFIGITELKKIWNNMTWMQWDK (AQYIKANSKFIGITELKKIWNNMTWMQWDK) [A30K] | – | – | – | – | – | – | – | – | – | – | – | 45% | 150-fold | 0.83 ± 0.44 | IgG2/IgG1 ratio [2]: 3.24
6 | C-S-L-E-Q-I-A-N-N-M-T-A-M-Q-A-D-K (CSLEQIANNMTAMQADK) [CBD1/A] | – | – | – | – | – | – | – | – | – | – | – | – | – | – | Inhibition of HIV-infection [3]: no apparent neutralizing activity; also recorded: No Effect; Inhibition of HIV infection ([3]; 100 fold dilution of guinea pig immune serum (bleeds S5), HIV-1 BZ 162, human CD4+ T lymphocytes): did not inhibit; ELISA C10M (titer) [4]: 16,000; ELISA CBD1 (titer) [5]: 20,000 and 16,000; ELISA C13K (titer) [6]: 2,000 and 1,000; ELISA CBD1/A (titer) [6]: 128,000; ELISA KLH (titer against the CBD1-KLH construct) [6]: <200
7 | KRWIILGLNKIVRMYKKIWNNM [K23M] | 11% | 100-fold | <0.20 | 0.53 | <0.20 | <0.20 | <0.20 | <0.20 | <0.20 | 0.66 | <0.20 | – | – | – | immunized mice that developed peptide specific antibodies [2]: 1 out of the five and ^aOnly 1 out of five mice immunized with the K23M peptide developed anti-K23M specific antibodies.
8 | AQYIKANSKFIGITELKKCSLEQIWNNMTWMQWDK (AQYIKANSKFIGITELKKCSLEQIWNNMTWMQWDK) [A35K] | – | – | – | – | – | – | – | – | – | – | – | 42% | 150-fold | 0.61 ± 0.35 | difference in the degree of neutralization of HIV-1 infection versus anti-CBD1 immune sera [1]: less than 2 fold; production of anti-CBD1 peptide antibodies, fold lower compared to the CBD1 peptide alone [2]: at least 3 fold; IgG2/IgG1 ratio [2]: 1.56
9 | KQIINMWQVVGKAMYAKKCKSLEQIWNNMTWMQWDK (KQIINMWQVVGKAMYAKKCKSLEQIWNNMTWMQWDK) | – | – | – | – | – | – | – | – | – | – | – | 45% | 150-fold | 1.07 ± 0.33 | –
10 | RGDAQYIKANSKFIGITELKKIWNNMTWMQWDK (RGDAQYIKANSKFIGITELKKIWNNMTWMQWDK) [R33K] | – | – | – | – | – | – | – | – | – | – | – | 64% | 200-fold | 1.66 ± 0.37 | IgG2/IgG1 ratio [2]: 4.05
11 | C-S-L-E-Q-I-W-N-N-M (CSLEQIWNNM) [C10M] | No Effect | No Effect | – | – | – | – | – | – | – | <0.10 | – | – | – | – | –
12 | KRWIILGLNKIVRMYKKCSLEQIWNNM [K27M] | 65% | 250-fold | – | – | – | – | – | – | – | 1.38 | – | – | – | – | –
13 | KRWIILGLNKIVRMYKKIWNNMTWMQWDK [K29K] | – | – | – | – | – | – | – | – | – | – | – | 62% | 250-fold | 1.80 ± 0.62 | IgG2/IgG1 ratio [2]: 4.95
14 | KRWIILGLNKIVRMYGPGPGIWNNMTWMQW [K30W(G)] | 81% | 450-fold | <0.20 | <0.20 | <0.20 | <0.20 | <0.20 | <0.20 | 1.23 ± 0.55 | 1.45 | <0.20 | – | – | – | –
15 | KLH-CSLEQIWNNMTWMQWDK [KLH-C17K] | – | – | – | – | – | – | – | – | – | – | – | – | – | – | Inhibition of HIV-infection [3]: No Effect; ELISA C10M (titer) [4]: <200; ELISA CBD1 (titer) [5]: <200; ELISA C13K (titer) [6]: <200; ELISA CBD1/A (titer) [6]: <200; ELISA KLH (titer against the CBD1-KLH construct) [6]: <200
16 | KRWIILGLNKIVRMYGPGPGIWNNMTW [K27W(G)] | 16% | 100-fold | <0.20 | <0.20 | <0.20 | <0.20 | <0.20 | 0.66 ± 0.22 | <0.20 | 0.73 | <0.20 | – | – | – | –
17 | SLEQIWNNMTWMQWDK [CBD1 peptide 618-633] | – | – | – | – | – | – | – | – | – | – | – | – | – | – | HIV-1 positive sera reacting in ELISA / sera tested ([7]; Brazil, n = 22): 1/22; mean OD 450 nm ± S.D. of reacting sera ([7]; Brazil, n = 22): 0.75 OD; HIV-1 positive sera reacting in ELISA / sera tested ([7]; Chili, n = 24): 1/24; mean OD 450 nm ± S.D. of reacting sera ([7]; Chili, n = 24): 0.30 OD; HIV-1 positive sera reacting in ELISA / sera tested ([7]; France, n = 81): 4/81; mean OD 450 nm ± S.D. of reacting sera ([7]; France, n = 81): 0.33 ± 0.05 OD
18 | KRWIILGLNKIVRMYKKIWNNMTWMQW [K27W] | 65% | 300-fold | 0.24 ± 0.12 | <0.20 | <0.20 | <0.20 | 1.49 ± 0.75 | <0.20 | 2.25 ± 0.20 | 1.64 | <0.20 | – | – | – | –
19 | CKSLEQIWNNMTWMQWDK [C18K] | – | – | – | – | – | – | – | – | – | – | – | 65% | 250-fold | 1.75 ± 0.60 | –
